The source of these data is patent publication US11767286B2, “Phenylpropionate compound, preparation method for same, and applications thereof” (SUZHOU PHARMAVAN CO., LTD, priority 2017, dated 2023).

Read-outs that look alike come from different tables or passages of the source.

The subject of data set [1] is rats with acute cerebral ischemia-reperfusion. Description: Cerebral infarction area of rats with acute cerebral ischemia-reperfusion (MCAO, suture method). Format: in vivo, SD rats. Set-up: Cerebral Infarction Area: unit not given here. Conditions: n=5; for Cerebral Infarction Area: 4 mg/kg iv 2 h after reperfusion (2 h MCAO), sampled 4 h after administration; for inhibition in vivo at 4 mg/kg: Rattus norvegicus, 4 h, 4 mg/kg iv 2 h after reperfusion, vs solvent control, read-out: Percentage of Cerebral Infarction Area Reduction. On the procedure: (§1) Trial method: Effects on inflammatory factors and blood viscosity of rats with acute cerebral ischemia-reperfusion: 70 Male SD rats underwent an MACO surgery by a suture method, and after the surgery, alive rats were randomly grouped (into 7 groups, the number of successful animals in each group was guaranteed to be 6 to 8). Blood perfusion was recovered 2 h after MCAO, and corresponding trial medicaments were intravenously injected 2 h after blood reperfusion. 4 hours after the administration, blood was collected and the rats were sacrificed to take out brain tissues. The brain tissues and part of the blood were centrifuged to collect serum which was detected for inflammatory factors, and part of the blood was detected for blood viscosity by using a blood viscometer. Detected indicators: cerebral infarction area; inflammatory factors IL-1β and TNF-α; and blood viscosity.
Table 1 lists results of effects of phenylpropionate compounds (4 mg/kg) on cerebral infarction area of rats with acute cerebral ischemia (n=5).

For data set [2] the test system is unchanged. The experiment in a line: Blood viscosity of rats with acute cerebral ischemia-reperfusion (blood viscometer). The settings on record: 4 mg/kg iv 2 h after reperfusion; blood 4 h after administration; n=5. Set-up: unit not given here. Format: in vivo, SD rats. On the procedure:
as §1
Table 2 lists results of effects of phenylpropionate compounds (4 mg/kg) on blood viscosity of rats (n=5).

The test system of data set [3] is TNF-α. The experiment in a line: Inflammatory factor TNF-α in blood and brain tissues of rats with acute cerebral ischemia-reperfusion. The data set is classed as in vivo, SD rats. The settings on record: 4 mg/kg iv 2 h after reperfusion; 4 h after administration; n=5. On the procedure:
as §1
(§2) Table 3 lists results of effects of phenylpropionate compounds (4 mg/kg) on inflammatory factors in blood and brain tissues of rats (n=5).

Data set [4] deals with IL-1β. The experiment in a line: Inflammatory factor IL-1β in blood and brain tissues of rats with acute cerebral ischemia-reperfusion. The data set is classed as in vivo, SD rats. Conditions: 4 mg/kg iv 2 h after reperfusion; 4 h after administration; n=5. On the procedure:
as §1, §2

The subject of data set [5] is platelet aggregation induced with ADP. Description: Maximum platelet aggregation rate of rabbits, induced with ADP. Format: cell-based. The settings on record: rabbit plasma, 4 mg/kg as printed, n=3; for inhibition at 4 mg/kg: Oryctolagus cuniculus, Platelet. On the procedure:
(§3) Effects on maximum platelet aggregation rate of rabbits: 3 Rabbits were anesthetized, and blood was collected from the heart to obtain 14 parts of plasma for each rabbit (1 ml per part of plasma). 7 Parts were induced with ADP to allow platelet aggregation, and 7 parts were induced with a platelet activating factor. After the induction, a solvent, positive control drug aspirin, and 5 samples to be trialed were separately added to the plasma, and maximum platelet aggregation rate was detected with a platelet aggregation meter. The trials were repeated 3 times, and an average was taken. Detected indicator: maximum platelet aggregation rate.
(§4) Table 4 lists results of effects of phenylpropionate compounds (4 mg/kg) on platelet aggregation rate of rabbits (n=3).

Data set [6] has as its system platelet aggregation induced with a platelet activating factor. The experiment in a line: Maximum platelet aggregation rate of rabbits, induced with PAF. Format: cell-based. The settings on record: rabbit plasma, 4 mg/kg as printed; for inhibition at 4 mg/kg: Oryctolagus cuniculus, Platelet, n=3, read-out: Inhibiton rate on Aggregation; for Maximum Aggregation Rate: n=3. As for the experimental part: as §3, §4

In data set [7] the test system is SD rat model of focal ischemia-reperfusion. Description: Dose-effect relationship in SD rat model of focal ischemia-reperfusion (MCAO). The data set is classed as in vivo, SD rats. The settings on record: 4.0 mg/kg, given 2 h after reperfusion, mean ± standard error; for Score of Symptoms of Neurological Deficits: 48 h, modified Bederson 5-point scale; for Infarction area: evaluated after 48 h. On the procedure: In this example, phenylpropionate compounds were studied for dose-effect relationship, with D-bornyl ferulate (administrated at 4.0 mg/kg) and D-tanshinol borneol ester (administrated at 4.0 mg/kg) as positive control drugs. Structures of D-bornyl ferulate (Patent Application No.: 201510243181.5) and D-tanshinol borneol ester compounds are as follows:
Trial method: A cerebral ischemia reperfusion model of middle cerebral artery occlusion (MCAO) was prepared by an internal carotid artery suture method. An animal was anesthetized with 10% chloral hydrate (3.6 mL/kg) and then fixed on an operating table in a supine position. Its skin was disinfected, and a midline incision was made on the neck. The right common carotid artery, external carotid artery, and internal carotid artery were separated, the vagus nerve was gently striped off, and the external carotid artery was ligated and cut. The common carotid artery was clamped at the proximal end. […] The nylon thread was advanced through the bifurcation of the common carotid artery into the internal carotid artery, and then was slowly inserted until there was slight resistance (about 20 mm from the bifurcation) to block all the blood supply to the middle cerebral artery. 2 h after cerebral ischemia, the nylon thread was gently pulled out to restore blood supply for reperfusion, and the neck skin was sutured and disinfected. The animal was put back in a cage and raised. During the modeling operation, animals with abnormal conditions due to anesthesia, surgery, etc. were excluded, and successfully modeled animals were randomly grouped. Schemes were set according to different trial doses, and drug treatment was given 2 h after cerebral ischemia-reperfusion. Death conditions were recorded every day after the surgery, and indicators were evaluated after 48 h. In the whole trial process, general conditions were observed, mainly including: death, coma, breathing, urine and feces traits, hair colors, mental status, vomiting and vomitus, bleeding, convulsion, spasm, etc. Abnormal animals due to unexpected factors were excluded. Finally, unblinding was conducted by a person who made blind trials.
Evaluated indicator: (1) Evaluation of symptoms of neurological deficits: The symptoms of neurological deficits were evaluated by using a modified Bederson 5-point scale. A single-blind method was used for evaluating the symptoms of neurological deficits in rats with brain trauma. That is, a trial designer marked animals in accordance with groups, and an experimenter who scored the symptoms of neurological deficits had no knowledge of how the animals were grouped. After scoring was completed, the scorer submitted scoring results for various marks to the designer, and the designer performed unblinding to obtain scores of animals in each trial group. (2) Measurement of cerebral infarction area: A method reported in the literature was used. An animal was anesthetized with 10% chloral hydrate and decapitated to collect brain. The olfactory bulb, cerebellum and lower brain stem were removed. Blood stains on the surface of the brain were rinsed with normal saline, the residual water stains on the surface were absorbed, and the brain was placed at −80° C. for 7 min. After the brain was taken out, a coronal section was immediately made at downwards and vertical to the sight intersection plane, and brain slices were made every 2 mm backwards. Brain slices were placed in a TTC (20 g/L) dye solution prepared with 0.9% normal saline, and incubated at 37° C. for 90 min. Normal brain tissues were stained deep red, and ischemic brain tissues were pale-white. After rinsed with normal saline, the brain sections were quickly arranged in order from front to back, the residual water stains on the surface were absorbed to dryness, and pictures were taken. Image analysis software was used for statistics on the pictures. […]

The nature of data set [8]: Distribution in brain: plasma and intracerebral concentrations after intravenous injection. Conditions: both sexes, rat, rats, 4 mg/kg iv; for Kp at 10 min / Kp at 60 min / Kp at 180 min: brain/plasma, read-out: Brain/Blood Concentration Ratio. Format: in vivo. On the procedure: In this example, Compounds A to E, D-bornyl ferulate, and D-tanshinol borneol ester were measured for distribution in brain. Structures of D-bornyl ferulate (Patent Application No.: 201510243181.5) and D-tanshinol borneol ester compounds are as follows:
Method for testing distribution in brain: 42 rats with a weight range of 200±20 g were taken. The rats were randomly divided into 7 groups, with 6 rats per group, half male and half female. Rats were fasted with free access to water for 12 h and then intravenously injected with 4 mg/kg of a compound. Rats in the 3 groups were sacrificed through femoral artery bleeding and collected for blood 10 min, 60 min, 180 min after administration, respectively. Brains were taken out, 0.2 g was weighted, and 1 mL of pure water was added for homogenizing. The blood samples and brain homogenate samples were stored at −20° C.
Distribution of Compounds A to E, and D-bornyl ferulate and D-tanshinol borneol ester compounds in brain: Data on concentrations of Compounds A to E, D-bornyl ferulate, and D-tanshinol borneol ester in plasma and intracerebral in rats intravenously injected with 4 mg/kg of Compounds A to E, D-bornyl ferulate, and D-tanshinol borneol ester are listed in Table 9.

[9] abbreviates: brain, read-out: Mean Intracerebral Concentration.
Where [10] appears, read: plasma, read-out: Mean Plasma Concentration.

As to `COc1cc(/C=C/C(=O)O[C@H]2C[C@H]3CC[C@]2(C)C3(C)C)ccc1O` [D-bornyl ferulate, reference compound], in data set [1], the “Cerebral Infarction Area” value was determined as 21.7 ± 4.35 and the inhibition in vivo at 4 mg/kg was 40.9%. In data set [2], the “Blood viscosity, High Shear” value amounted to 2.84 ± 0.323 and the “Blood viscosity, Low Shear” value came to 13.8 ± 0.574. Further, the TNF-α in data set [3] is 658 ± 23.6 ng/L. In data set [4], this molecule registered an IL-1β of 64.8 ± 5.8 ng/L. In addition, in data set [5], the inhibition at 4 mg/kg is 46.5% and the “Maximum Aggregation Rate” value was found to be 17.6 ± 4.59 %. Also, in data set [6], the inhibition at 4 mg/kg was found to be 36.4% and the “Maximum Aggregation Rate” value turned out to be 45.4 ± 2.64 %. Besides, in data set [7], the “Score of Symptoms of Neurological Deficits” value is reported as 1.94 ± 0.19 and the Infarction area is on record as 21.68 ± 2.80 %. Further, in data set [8], the Kp at 10 min was 0.52, the Kp at 60 min turned out to be 5 and the Kp at 180 min was 5.8. In data set [8] (setting [9]), the concentration at 10 min is 1490 ± 219 ng/g, the concentration at 60 min came out at 701 ± 136 ng/g and the concentration at 180 min amounted to 276 ± 81.3 ng/g. In data set [8] (setting [10]), the concentration at 10 min is 2890 ± 671 ng/mL, the concentration at 60 min came to 138 ± 55 ng/mL and the concentration at 180 min was found to be 47.1 ± 21.6 ng/mL.
As for `CC1(C)[C@@H]2CC[C@@]1(C)[C@@H](OC(=O)[C@H](O)Cc1ccc(O)c(O)c1)C2` [D-tanshinol borneol ester, reference compound], in data set [1], the “Cerebral Infarction Area” value is 25.6 ± 4.65 and the inhibition in vivo at 4 mg/kg is 30.2%. Also, in data set [2], the “Blood viscosity, High Shear” value turned out to be 2.76 ± 0.134 and the “Blood viscosity, Low Shear” value is reported as 14.1 ± 0.658. In data set [3], this molecule had a TNF-α of 687 ± 35.4 ng/L. This molecule also yielded an IL-1β in data set [4] of 67.1 ± 8.8 ng/L. In data set [5], the inhibition at 4 mg/kg was 43.8% and the “Maximum Aggregation Rate” value is 18.5 ± 4.36 %. For the same molecule, in data set [6], the inhibition at 4 mg/kg was 33.8% and the “Maximum Aggregation Rate” value was found to be 47.3 ± 4.53 %. Besides, in data set [7], the “Score of Symptoms of Neurological Deficits” value stood at 1.98 ± 0.17 and the Infarction area is on record as 22.76 ± 2.42 %. In data set [8], the Kp at 10 min turned out to be 0.47, the Kp at 60 min worked out at 2.6 and the Kp at 180 min worked out at 3.4. Further, in data set [8] (setting [9]), the concentration at 10 min was 1040 ± 168 ng/g, the concentration at 60 min was 644 ± 99.7 ng/g and the concentration at 180 min worked out at 177 ± 35.2 ng/g. In data set [8] (setting [10]), the concentration at 10 min was 2210 ± 546 ng/mL, the concentration at 60 min is 244 ± 62.4 ng/mL and the concentration at 180 min came out at 52.8 ± 34.1 ng/mL.
